{
  "source": "patent US20260115203A1",
  "about": "(LABORATORIOS LITAPHAR, S.L., priority 2023, published 2026)",
  "key": {"[1]": {"molecular_target": "T1, human progesterone receptor (Homo sapiens, UniProt P06401)", "T1 sequence (P06401 1-933)": "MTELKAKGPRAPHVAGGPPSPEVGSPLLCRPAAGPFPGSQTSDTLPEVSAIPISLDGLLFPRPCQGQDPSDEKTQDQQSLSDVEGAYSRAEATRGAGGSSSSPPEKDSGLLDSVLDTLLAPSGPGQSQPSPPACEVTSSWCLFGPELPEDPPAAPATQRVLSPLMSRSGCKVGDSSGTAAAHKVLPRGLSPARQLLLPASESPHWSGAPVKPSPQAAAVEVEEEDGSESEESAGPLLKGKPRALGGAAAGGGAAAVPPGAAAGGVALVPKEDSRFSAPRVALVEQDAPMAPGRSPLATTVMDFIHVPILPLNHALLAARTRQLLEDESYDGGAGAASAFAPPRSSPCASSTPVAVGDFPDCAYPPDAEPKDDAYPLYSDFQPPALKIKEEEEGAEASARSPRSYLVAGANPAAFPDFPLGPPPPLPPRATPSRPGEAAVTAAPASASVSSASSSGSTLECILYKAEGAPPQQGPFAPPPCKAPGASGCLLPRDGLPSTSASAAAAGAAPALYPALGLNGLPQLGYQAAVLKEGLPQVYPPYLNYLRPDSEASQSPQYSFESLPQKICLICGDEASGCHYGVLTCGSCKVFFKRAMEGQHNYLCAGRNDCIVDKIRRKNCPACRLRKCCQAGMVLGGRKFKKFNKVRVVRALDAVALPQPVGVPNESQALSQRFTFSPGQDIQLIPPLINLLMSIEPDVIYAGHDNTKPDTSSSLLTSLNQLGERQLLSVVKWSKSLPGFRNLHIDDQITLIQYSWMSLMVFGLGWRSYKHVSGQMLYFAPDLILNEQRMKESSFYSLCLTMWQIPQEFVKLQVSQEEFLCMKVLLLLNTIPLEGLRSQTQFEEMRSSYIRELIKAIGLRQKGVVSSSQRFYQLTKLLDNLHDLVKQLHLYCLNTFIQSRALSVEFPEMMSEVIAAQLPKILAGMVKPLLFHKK", "conditions": "cited from earlier work"}, "[2]": {"molecular_target": "T2, human glucocorticoid receptor (Homo sapiens, UniProt P04150)", "T2 sequence (P04150 1-777)": "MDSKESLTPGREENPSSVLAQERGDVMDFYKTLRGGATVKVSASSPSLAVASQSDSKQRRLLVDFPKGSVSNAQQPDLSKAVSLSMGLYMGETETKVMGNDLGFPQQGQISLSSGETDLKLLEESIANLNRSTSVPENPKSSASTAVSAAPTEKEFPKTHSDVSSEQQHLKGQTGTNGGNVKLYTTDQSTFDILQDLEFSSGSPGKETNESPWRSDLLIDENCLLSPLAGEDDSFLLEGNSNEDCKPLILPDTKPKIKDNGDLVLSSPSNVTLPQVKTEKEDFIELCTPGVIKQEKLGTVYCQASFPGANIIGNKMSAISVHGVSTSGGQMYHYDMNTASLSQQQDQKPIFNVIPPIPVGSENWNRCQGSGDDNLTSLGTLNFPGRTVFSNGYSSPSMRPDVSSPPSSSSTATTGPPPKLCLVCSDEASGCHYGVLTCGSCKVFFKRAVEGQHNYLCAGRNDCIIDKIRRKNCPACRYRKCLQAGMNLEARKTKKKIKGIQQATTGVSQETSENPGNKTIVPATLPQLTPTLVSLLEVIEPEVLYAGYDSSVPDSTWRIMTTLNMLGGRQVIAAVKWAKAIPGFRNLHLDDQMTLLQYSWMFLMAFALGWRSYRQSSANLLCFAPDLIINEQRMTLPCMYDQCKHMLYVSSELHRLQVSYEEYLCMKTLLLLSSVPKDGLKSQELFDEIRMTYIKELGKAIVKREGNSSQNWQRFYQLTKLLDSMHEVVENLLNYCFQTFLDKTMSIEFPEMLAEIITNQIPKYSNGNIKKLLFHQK", "conditions": "cited from earlier work"}, "[3]": {"conditions": "compared with parent drug mifepristone; cited from earlier work"}, "[4]": {"tested_on": "endometriosis in reproductive-age women", "assay": "Randomized, double-blind clinical trial of mifepristone 2.5 mg and 5 mg vs. placebo (EudraCT 2018-002367-26), endometriosis associated pain by VAS", "type": "in vivo", "text": "Both mifepristone products were formulated as tablets with the following respective compositions: […]\nThe planned number of subjects to be included in the whole clinical trial was 490.\nThe principal inclusion criteria were: • [1] Premenopausal female, between 18 and 45 years of age inclusive, at the time of signing consent • [2] Patients with Endometriosis Associated Pelvic Pain (EAPP: i.e. any type of pelvic pain associated with endometriosis: nonmenstrual pelvic pain, dysmenorrhea, dyschezia and dyspareunia) as measured by Visual Analogue Scale (VAS)≥40 mm at least once in the previous 4 weeks from baseline visit • [3] Patients with a history of EAPP for at least the past 6 months prior to the initial screening visit • [4] Endometriosis diagnosed by laparoscopy and/or surgery in the past 10 years or less or diagnosed by MRI or transvaginal ultrasound in the past 5 years • [5] Patients with a history of regular menstrual cycles (21-35 days) while not being on any pharmacological treatment that could alter the menstrual cycle (e.g. oral contraceptive pills) • [6] Patients who agree to use only ibuprofen 400 mg as rescue medication up to a total daily dose of not more than 2400 mg • [7] Patients willing and able (e.g. mental and physical condition) to participate in all aspects of the study as evidenced by providing signed written informed consent • [8] Patient agrees to use double barrier contraception birth control methods (e.g. condom with spermicide) during the entire length of participation in the study. […] History of hypersensitivity or intolerance to the active substance or any of the excipients of the study medication • [2] Subject is pregnant or breast-feeding or is planning a pregnancy within the duration of the study or is less than 6 months postpartum, post-abortion, or post-lactation at the time of entry into the screening period • [3] Previous use of hormonal agents before the Screening visit: ≤24 weeks for GnRH agonists; ≤12 weeks for depot progestogens and danazol: ≤6 weeks for oral contraceptives • [4] Patients with history of any cancer (including breast cancer) and/or histological diagnosis of endometrial atypical hyperplasia at baseline (note: the combination of endometrial thickness<5 mm determined by transvaginal ultrasound and insufficient material for histological evaluation from the endometrial biopsy will be regarded as atrophic endometrium) • [5] Other clinically significant gynaecological condition causing abnormal uterine bleeding already known or identified on Screening such as severe adenomyosis or symptomatic uterine fibroids requiring treatment • [6] Subject has current or history of abnormal genital bleeding • [7] Presence of ovarian cyst of unknown etiology • [8] Cervical smear with pathological findings: class III or higher according to Papanicolaou, class IIp or higher according to the Munich Ill nomenclature or ASC-US or higher according to the Bethesda system • [9] Surgical treatment of endometriosis within 3 months prior to the screening visit • [10] Presence of chronic pain other than pain due to endometriosis • [11] Hepatic insufficiency • [12] History of, or complications of, thrombosis, embolism, or serious cardiac, respiratory (severe asthma not adequately controlled by treatment), renal, hematologic, endocrine diseases • [13] Uncontrolled or inadequately controlled hypertension at the time of screening with a resting supine systolic or diastolic blood pressure>180 mmHg or >95 mmHg, respectively • [14] Subject with hereditary porphyria • [15] Abnormal laboratory findings considered by the investigator as clinically significant • [16] Positive results for HBs-Ag, anti-HCV and HIV-1/HIV-2-antibodies • [17] […]"}, "[5]": {"tested_on": "women with endometriosis", "conditions": "100 mg orally daily, three months, cited from earlier work"}, "[6]": {"tested_on": "women with endometriosis", "conditions": "50 mg orally daily, 6 months, cited from earlier work"}, "[7]": {"tested_on": "women with endometriosis", "conditions": "5 mg orally daily, 6 months, cited from earlier work"}, "[8]": {"tested_on": "women with laparoscopic diagnostic of endometriosis", "conditions": "cited from earlier work"}},
  "note": "Entries after “also recorded” stand apart in the source; their conditions may differ. Like-named read-outs stand apart in the source and are kept apart here.",
  "data": [
    {"smiles": "CC#C[C@]1(O)CC[C@H]2[C@@H]3CCC4=CC(=O)CCC4=C3[C@@H](c3ccc(NC)cc3)C[C@@]21C", "note": "[RU 42633]", "values": [
      {"measurement": "affinity toward the human progesterone receptor", "setting": "[1]", "value": "considerable affinity"},
      {"measurement": "affinity toward the human glucocorticoid receptor", "setting": "[2]", "value": "considerable affinity"},
      {"measurement": "serum concentrations", "setting": "[3]", "value": "in a similar range as those of the parent drug"}
    ]},
    {"smiles": "CN(C)c1ccc([C@H]2C[C@@]3(C)[C@@H](CC[C@]3(O)C#CCO)[C@@H]3CCC4=CC(=O)CCC4=C32)cc1", "note": "[RU 42698]", "values": [
      {"measurement": "affinity toward the human progesterone receptor", "setting": "[1]", "value": "considerable affinity"},
      {"measurement": "affinity toward the human glucocorticoid receptor", "setting": "[2]", "value": "considerable affinity"},
      {"measurement": "serum concentrations", "setting": "[3]", "value": "in a similar range as those of the parent drug"}
    ]},
    {"smiles": "CC#C[C@]1(O)CC[C@H]2[C@@H]3CCC4=CC(=O)CCC4=C3[C@@H](c3ccc(N)cc3)C[C@@]21C", "note": "[RU 42848]", "values": [
      {"measurement": "affinity toward the human progesterone receptor", "setting": "[1]", "value": "considerable affinity"},
      {"measurement": "affinity toward the human glucocorticoid receptor", "setting": "[2]", "value": "considerable affinity"},
      {"measurement": "serum concentrations", "setting": "[3]", "value": "in a similar range as those of the parent drug"}
    ]},
    {"smiles": "CC#C[C@]1(O)CC[C@H]2[C@@H]3CCC4=CC(=O)CCC4=C3[C@@H](c3ccc(N(C)C)cc3)C[C@@]21C", "note": "[mifepristone]", "values": [
      {"measurement": "pain relief, 2.5 mg daily dose compared with 5 mg daily dose", "setting": "[4]; 2.5 mg (T1) vs 5 mg (T2) per day", "value": "more pronounced than the 5 mg group; also recorded: more effective than the 5 mg dose; also recorded: less pelvic pain than with a daily dose of 5 mg"},
      {"measurement": "pain associated with extra-pelvic endometriosis", "setting": "[4]; 2.5 mg tablet every day as monotherapy, lesions in cesarean sections or ovarian endometriomas", "value": "effective to reduce the pain associated with extra-pelvic endometriosis; also recorded: appropriate pain relief"},
      {"measurement": "endometrial thickening", "setting": "[4]; 5 mg dose compared with 2.5 mg dose", "value": "markedly greater endometrial thickening than the lower dose of 2.5 mg"},
      {"measurement": "EAP (VAS)", "setting": "[4]; T1, 2.5 mg mifepristone per day, 1 month of treatment", "value": 29.19},
      {"measurement": "EAP (VAS)", "setting": "[4]; T1, 2.5 mg mifepristone per day, 2 months of treatment", "value": 24.61},
      {"measurement": "EAP (VAS)", "setting": "[4]; T1, 2.5 mg mifepristone per day, 3 months of treatment", "value": 23.63},
      {"measurement": "EAP (VAS)", "setting": "[4]; T1, 2.5 mg mifepristone per day, 4 months of treatment", "value": 22.31},
      {"measurement": "EAP (VAS)", "setting": "[4]; T1, 2.5 mg mifepristone per day, month 0 (before treatment)", "value": 32.81},
      {"measurement": "EAP (VAS)", "setting": "[4]; T2, 5 mg mifepristone per day, 1 month of treatment", "value": 29.30},
      {"measurement": "EAP (VAS)", "setting": "[4]; T2, 5 mg mifepristone per day, 2 months of treatment", "value": 26.11},
      {"measurement": "EAP (VAS)", "setting": "[4]; T2, 5 mg mifepristone per day, 3 months of treatment", "value": 24.58},
      {"measurement": "EAP (VAS)", "setting": "[4]; T2, 5 mg mifepristone per day, 4 months of treatment", "value": 25.01},
      {"measurement": "EAP (VAS)", "setting": "[4]; T2, 5 mg mifepristone per day, month 0 (before treatment)", "value": 32.81},
      {"measurement": "intensity of pain associated with endometriosis", "setting": "[4]; daily dose of 2.5 mg alone, no analgesic rescue medication", "value": "significant reduction"},
      {"measurement": "amenorrhea", "setting": "[5]; six women", "value": "reported by all study participants"},
      {"measurement": "pelvic pain", "setting": "[5]; six women", "value": "all women also reported improvement"},
      {"measurement": "extent of endometriosis (follow-up laparoscopy)", "setting": "[5]", "value": "no significant change"},
      {"measurement": "amenorrhea / hypoestrogenism", "setting": "[6]; all patients", "value": "amenorrhea without hypoestrogenism"},
      {"measurement": "pelvic pain and uterine cramping", "setting": "[6]; nine women", "value": "improved in all patients"},
      {"measurement": "regression of endometriosis (laparoscopic assessment, AFS score)", "setting": "[6]", "value": 55, "unit": "%"},
      {"measurement": "cyclic bleeding", "setting": "[7]; seven women", "value": "ceased in all patients"},
      {"measurement": "pelvic pain", "setting": "[7]; seven women", "value": "improved in six of seven patients"},
      {"measurement": "decrease of mean endometriosis scores", "setting": "[7]", "value": "decreased by only %"},
      {"measurement": "amenorrhea and clinical improvement, 2.5 mg group vs 5 and 10 mg groups", "setting": "[8]; 2.5 mg oral dose", "value": "significantly lower percentages of amenorrhea and clinical improvement than the 5 and 10 mg groups"},
      {"measurement": "use of analgesics (rescue therapy), 2.5 mg group vs 5 and 10 mg groups", "setting": "[8]; 2.5 mg oral dose", "value": "significantly greater use of analgesics"},
      {"measurement": "effectiveness against placebo", "setting": "[8]; 2.5, 5 and 10 mg oral doses, all treatment groups", "value": "more effective than the placebo group"},
      {"measurement": "clinical improvement, 5 mg vs 10 mg", "setting": "[8]; after 90 and 180 days of treatment", "value": "no differences were observed"}
    ]}
  ]
}
